Laboratory results as given in patent US8216550B2, “Luciferins” (University of Massachusetts, priority 2007, dated 2012).

Legend:
Firefly luciferase [1] = conditions: amino-luciferin as substrate, literature value; cited from earlier work
Firefly luciferase [2] = test: Luciferase assay: emission spectrum of purified luciferase with luciferin substrates; conditions: substrate of purified firefly luciferase, pH 7.8, Spex Fluoromax-3

Compound	maximal emission (Firefly luciferase [2]) [nm]	maximal emission reported by White et al., JACS (1966) 88: 2015 (Firefly luciferase [1]) [nm]
O=C(O)[C@H]1CSC(c2nc3ccc(O)cc3s2)=N1 [D-luciferin, reference compound]	555	–
CCNc1ccc2nc(C3=N[C@@H](C(=O)O)CS3)sc2c1 [ethylamino, D-2-(6′-ethylamino-2′-benzothiazolyl)-Δ^2-thiazoline-4-carboxylic acid]	607	–
CN(C)c1ccc2nc(C3=N[C@@H](C(=O)O)CS3)sc2c1 [dimethylamino-luciferin (1a), D-2-(6′-dimethylamino-2′-benzothiazolyl)-Δ^2-thiazoline-4-carboxylic acid]	624	–

More lines, main results first:

maximal emission (Firefly luciferase [2]) [nm]	Compound	maximal emission reported by White et al., JACS (1966) 88: 2015 (Firefly luciferase [1]) [nm]
593	amino-luciferin [reference compound]	605
607	CCCCNc1ccc2nc(C3=N[C@@H](C(=O)O)CS3)sc2c1 [n-butylamino, D-2-(6′-butylamino-2′-benzothiazolyl)-Δ^2-thiazoline-4-carboxylic acid]	–
607	CC(C)Nc1ccc2nc(C3=N[C@@H](C(=O)O)CS3)sc2c1 [isopropylamino, D-2-(6′-isopropylamino-2′-benzothiazolyl)-Δ^2-thiazoline-4-carboxylic acid]	–
